Reference: ChEMBL document CHEMBL5233214, “Tyrosinase inhibitors as potential antibacterial agents” (Eur J Med Chem, 2020)
pIC50: −log10 of the molar value. Converted amounts (≈) assume the structure as drawn.

Key:
Tyrosinase [1] = biological target: T1, Tyrosinase (Homo sapiens, UniProt P14679); experiment: Inhibition of tyrosinase (unknown origin) using DOPA as substrate incubated for 15 min by spectrophotometer assay
T1 sequence (P14679 whole entry): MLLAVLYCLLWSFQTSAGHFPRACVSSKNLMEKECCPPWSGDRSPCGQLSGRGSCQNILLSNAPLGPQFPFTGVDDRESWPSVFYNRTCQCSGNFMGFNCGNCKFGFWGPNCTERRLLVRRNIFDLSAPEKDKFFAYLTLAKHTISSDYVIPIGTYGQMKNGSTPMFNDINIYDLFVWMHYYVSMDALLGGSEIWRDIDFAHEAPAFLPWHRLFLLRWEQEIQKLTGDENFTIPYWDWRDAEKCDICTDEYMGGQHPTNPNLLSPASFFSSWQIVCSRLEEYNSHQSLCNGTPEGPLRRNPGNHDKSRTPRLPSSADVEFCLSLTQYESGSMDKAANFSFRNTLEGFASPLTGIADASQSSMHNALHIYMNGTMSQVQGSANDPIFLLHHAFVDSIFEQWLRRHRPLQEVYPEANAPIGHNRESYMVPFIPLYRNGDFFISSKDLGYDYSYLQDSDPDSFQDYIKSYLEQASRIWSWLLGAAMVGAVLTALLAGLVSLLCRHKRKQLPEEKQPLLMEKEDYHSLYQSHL

Salmonella typhimurium = experiment: Antibacterial activity against Salmonella enterica subsp. enterica serovar Typhimurium ATCC 14028 assessed as inhibition of bacterial growth incubated for 18 to 24 hrs by serial dilution method; format: functional; details: time 18-24 hrs
Tyrosinase [2] = biological target: T2, Tyrosinase (Agaricus bisporus, UniProt O42713); experiment: Inhibition of mushroom tyrosinase using L-DOPA as substrate incubated for 20 mins by microplate reader assay
T2 sequence (O42713 whole entry): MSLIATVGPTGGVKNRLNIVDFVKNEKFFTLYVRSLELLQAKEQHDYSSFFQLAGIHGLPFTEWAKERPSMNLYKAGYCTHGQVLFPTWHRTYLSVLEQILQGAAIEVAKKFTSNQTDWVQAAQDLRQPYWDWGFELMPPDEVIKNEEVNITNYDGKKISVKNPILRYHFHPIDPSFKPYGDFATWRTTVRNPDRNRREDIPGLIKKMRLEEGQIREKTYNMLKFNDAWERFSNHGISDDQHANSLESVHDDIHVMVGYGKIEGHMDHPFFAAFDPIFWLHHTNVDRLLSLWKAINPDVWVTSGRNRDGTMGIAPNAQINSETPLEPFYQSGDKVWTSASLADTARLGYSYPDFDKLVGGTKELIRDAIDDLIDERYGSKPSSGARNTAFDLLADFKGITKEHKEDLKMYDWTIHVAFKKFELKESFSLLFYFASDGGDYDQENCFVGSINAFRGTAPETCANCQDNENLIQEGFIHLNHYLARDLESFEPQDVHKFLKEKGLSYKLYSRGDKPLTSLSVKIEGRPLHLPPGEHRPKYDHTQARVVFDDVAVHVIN

Proteus vulgaris = experiment: Antibacterial activity against Proteus vulgaris ATCC 13315 assessed as inhibition of bacterial growth incubated for 18 to 24 hrs by serial dilution method; format: functional; details: time 18-24 hrs
[3] = tested on: Staphylococcus epidermidis; experiment: Antibacterial activity against Staphylococcus epidermidis ATCC 14990 assessed as inhibition of bacterial growth incubated for 18 to 24 hrs by serial dilution method; format: functional; details: time 18-24 hrs
Bacillus subtilis [4] = experiment: Antibacterial activity against Bacillus subtilis ATCC 66333 assessed as inhibition of bacterial growth incubated for 18 to 24 hrs by serial dilution method; format: functional; details: time 18-24 hrs
Enterobacter cloacae = experiment: Antibacterial activity against Enterobacter cloacae ATCC 13047 assessed as inhibition of bacterial growth incubated for 18 to 24 hrs by serial dilution method; format: functional; details: time 18-24 hrs
Klebsiella pneumoniae = experiment: Antibacterial activity against Klebsiella pneumoniae ATCC 13883 assessed as inhibition of bacterial growth incubated for 18 to 24 hrs by serial dilution method; format: functional; details: time 18-24 hrs
[5] = tested on: Staphylococcus epidermidis; experiment: microbe, parasite or virus in culture; details: TISTR 517
Description: Antibacterial activity against Staphylococcus epidermidis TISTR 517 assessed as inhibition of bacterial growth by broth microdilution method

Staphylococcus aureus [6] = experiment: microbe, parasite or virus in culture; details: ATTC 25923
Description: Antibacterial activity against Staphylococcus aureus ATTC 25923 assessed as inhibition of bacterial growth by broth microdilution method

Tyrosinase [7] = biological target: T2, Tyrosinase; experiment: Inhibition of mushroom tyrosinase using L-DOPA as substrate pre-incubated for 10 mins followed by substrate addition and measured after 20 mins by microplate reader assay
Staphylococcus aureus [8] = experiment: Antibacterial activity against Methicillin-resistant Staphylococcus aureus assessed as inhibition of bacterial growth by broth microdilution method
Staphylococcus aureus [9] = experiment: Antibacterial activity against Methicillin-resistant Staphylococcus aureus assessed as inhibition of bacterial growth by agar dilution method; format: functional
Bacillus subtilis [10] = experiment: Antibacterial activity against Bacillus subtilis assessed as zone of inhibition at 300 ug/ml; format: functional; details: read-out: IZ
Enterococcus faecalis = experiment: Antibacterial activity against Enterococcus faecalis assessed as zone of inhibition; format: functional, organism-based
Bacillus subtilis [11] = experiment: Antibacterial activity against Bacillus subtilis ATCC 9372 assessed as zone of inhibition at 10 ug per disk incubated for 12 hrs by paper-disk diffusion assay; format: functional; details: read-out: IZ
[12] = tested on: Staphylococcus epidermidis; experiment: Antibacterial activity against Staphylococcus epidermidis ATCC 35984 assessed as inhibition of bacterial growth incubated for 24 hrs by two-fold serial dilution method; format: functional
Staphylococcus aureus [13] = experiment: Antibacterial activity against Staphylococcus aureus ATCC 13301 assessed as zone of inhibition at 10 ug per disk incubated for 12 hrs by paper-disk diffusion assay; format: functional; details: read-out: IZ
Bacillus cereus = experiment: Antibacterial activity against Bacillus cereus ATCC 27348 assessed as zone of inhibition at 10 ug per disk incubated for 12 hrs by paper-disk diffusion assay; format: functional; details: read-out: IZ
Tyrosinase [14] = biological target: T2, Tyrosinase; experiment: Inhibition of mushroom tyrosinase using L-DOPA as substrate incubated for 10 mins by spectrophotometer assay
Staphylococcus aureus [15] = experiment: Antibacterial activity against Staphylococcus aureus assessed as zone of inhibition; format: functional
Fusobacterium nucleatum = experiment: Antibacterial activity against Fusobacterium nucleatum ATCC 10953 assessed as inhibition of bacterial growth incubated for 48 hrs by microbroth dilution method; format: functional

C[C@@H]1O[C@@H](OC[C@H]2O[C@@H](Oc3c(-c4ccc(O)cc4)oc4cc(O)cc(O)c4c3=O)[C@H](O)[C@@H](O)[C@@H]2O)[C@H](O)[C@H](O)[C@H]1O [NICOTIFLOROSIDE]
pIC50 (Tyrosinase [1]): 5.82

Nc1ccccc1C1=NNC(c2ccccn2)C1 (configuration not stated)
MIC (Salmonella typhimurium): 18.8 µg/mL (≈ 78.7 µM)
pIC50 (Tyrosinase [2]): 3.38
MIC (Proteus vulgaris): 18.8 µg/mL (≈ 78.7 µM)
MIC [3]: 18.8 µg/mL (≈ 78.7 µM)
MIC (Bacillus subtilis [4]): 18.8 µg/mL (≈ 78.7 µM)
MIC (Enterobacter cloacae): 18.8 µg/mL (≈ 78.7 µM)
MIC (Klebsiella pneumoniae): 18.8 µg/mL (≈ 78.7 µM)

F[B-]1(F)Nc2ccccc2C2=[N+]1NC(c1cccnc1)C2 (configuration not stated)
pIC50 (Tyrosinase [2]): 3.46
MIC [3]: 18.8 µg/mL (≈ 65.5 µM)

CC(C)=CCC/C(C)=C/Cc1c(O)ccc(C=O)c1O
MIC [5]: < 8 µg/mL
MIC (Staphylococcus aureus [6]): < 8 µg/mL
pIC50 (Tyrosinase [7]): < 3.14
MIC (Staphylococcus aureus [8]): < 8 µg/mL

O=c1cc(-c2ccc(O)c(O)c2)oc2cc(O)cc(O)c12 [LUTEOLIN]
MIC (Staphylococcus aureus [9]): 31.2 µg/mL (≈ 109 µM)
pIC50 (Tyrosinase [1]): 5.67

O=c1cc2n(c3ccccc13)[B-](F)(F)[n+]1ccccc1-2
MIC (Salmonella typhimurium): ≤ 18.8 µg/mL
pIC50 (Tyrosinase [2]): < 3.13
MIC (Proteus vulgaris): ≤ 18.8 µg/mL
MIC [3]: ≤ 18.8 µg/mL
MIC (Bacillus subtilis [4]): ≤ 18.8 µg/mL
MIC (Enterobacter cloacae): ≤ 18.8 µg/mL
MIC (Klebsiella pneumoniae): ≤ 18.8 µg/mL

COc1c(N2C[C@@H]3CCCN[C@@H]3C2)c(F)cc2c(=O)c(C(=O)O)cn(C3CC3)c12 [MOXIFLOXACIN]
pIC50 (Tyrosinase [2]): 5.52

CC1(C)S[C@@H]2[C@H](NC(=O)[C@H](N)c3ccccc3)C(=O)N2[C@H]1C(=O)O [AMPICILLIN]
zone of inhibition at 300 µg/mL (Bacillus subtilis [10]): 17.9 mm

Nc1ccccc1C1=NNC(c2ccncc2)C1 (configuration not stated)
pIC50 (Tyrosinase [2]): 3.38
MIC [3]: 37.5 µg/mL (≈ 157 µM)

F[B-]1(F)Nc2ccccc2C2=[N+]1NC(c1ccccn1)C2 (configuration not stated)
MIC (Salmonella typhimurium): 37.5 µg/mL (≈ 131 µM)
pIC50 (Tyrosinase [2]): 3.46
MIC (Proteus vulgaris): 37.5 µg/mL (≈ 131 µM)
MIC [3]: 37.5 µg/mL (≈ 131 µM)
MIC (Bacillus subtilis [4]): 37.5 µg/mL (≈ 131 µM)
MIC (Enterobacter cloacae): 37.5 µg/mL (≈ 131 µM)
MIC (Klebsiella pneumoniae): 37.5 µg/mL (≈ 131 µM)

C[C@@H]1O[C@@H](OC[C@H]2O[C@@H](Oc3c(-c4ccc(O)c(O)c4)oc4cc(O)cc(O)c4c3=O)[C@H](O)[C@@H](O)[C@@H]2O)[C@H](O)[C@H](O)[C@H]1O [RUTIN]
pIC50 (Tyrosinase [1]): 5.85

O=c1c(O[C@@H]2O[C@H](CO)[C@H](O)[C@H](O)[C@H]2O)c(-c2ccc(O)c(O)c2)oc2cc(O)cc(O)c12 [HYPEROSIDE]
pIC50 (Tyrosinase [1]): 5.78

GENTAMICIN
inhibition zone (IZ) (Enterococcus faecalis): 10.6 mm

C=C(C)C(CC=C(C)C)Cc1c(O)cc(O)c2c1O[C@H](c1ccc(O)cc1O)CC2=O (some centres not stated)
zone of inhibition at 10 µg/disc (Bacillus subtilis [11]): 14 mm
MIC [12]: 3.12 µg/mL (≈ 7.36 µM)
zone of inhibition at 10 µg/disc (Staphylococcus aureus [13]): 14 mm
zone of inhibition at 10 µg/disc (Bacillus cereus): 14 mm
pIC50 (Tyrosinase [14]): 5.33

CN[C@@H]1[C@H](O[C@H]2[C@H](O[C@H]3[C@H](O)[C@@H](O)[C@H](N=C(N)N)[C@@H](O)[C@@H]3N=C(N)N)O[C@@H](C)[C@]2(O)C=O)O[C@@H](CO)[C@H](O)[C@H]1O [STREPTOMYCIN]
inhibition zone (IZ) (Staphylococcus aureus [15]): 20.3 mm

C=C(C)C(CC=C(C)C)Cc1c(O)cc(OC)c2c1O[C@H](c1ccc(O)cc1O)CC2=O (some centres not stated) [KURARINONE]
zone of inhibition at 10 µg/disc (Bacillus subtilis [11]): 14 mm
zone of inhibition at 10 µg/disc (Staphylococcus aureus [13]): 14 mm
zone of inhibition at 10 µg/disc (Bacillus cereus): 14 mm
pIC50 (Tyrosinase [14]): 5.66

C=C(C)C(CCC(C)(C)O)Cc1c(O)cc(OC)c2c1O[C@H](c1ccc(O)cc1O)CC2=O (some centres not stated)
pIC50 (Tyrosinase [14]): 6.96

CC(C)=CCC[C@@](C)(O)[C@@H]1CC=C(C)CC1
pIC50 (Tyrosinase [1]): 2.54
MIC (Fusobacterium nucleatum): 8 µg/mL (≈ 36 µM)

Nc1ccccc1C1=NNC(c2cccnc2)C1 (configuration not stated)
pIC50 (Tyrosinase [2]): 3.38
MIC [3]: 150 µg/mL (≈ 629 µM)

F[B-]1(F)Nc2ccccc2C2=[N+]1NC(c1ccncc1)C2 (configuration not stated)
pIC50 (Tyrosinase [2]): < 3.16
MIC [3]: 37.5 µg/mL (≈ 131 µM)

OCCc1ccccc1 [PHENYLETHYL ALCOHOL]
pIC50 (Tyrosinase [1]): 2.59
MIC (Fusobacterium nucleatum): 8 µg/mL (≈ 65.5 µM)

CCn1cc(C(=O)O)c(=O)c2cc(F)c(N3CCNCC3)cc21 [NORFLOXACIN]
pIC50 (Tyrosinase [2]): 5.66
